Inhibition data for one compound are collected here from article PMC6934184, “Selective DNA-PKcs inhibition extends the therapeutic index of localized radiotherapy and chemotherapy” (The Journal of Clinical Investigation, 2019).

Molecules are shown by their SMILES.

This experiment addresses T1, STK22B (TSSK2) (Homo sapiens, UniProt Q96PF2).
T1 construct: purchased Thermo Fisher Scientific (Life Technologies) SelectScreen
Description: SelectScreen Z'LYTE. Format: biochemical. The method, boiled down:
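Percent values come from Thermo SelectScreen profiling of NU5455, combining activity and binding assays. CSF1R was run in Z'LYTE format at Km app ATP, and CAMK1 in Adapta format with ATP listed at 10.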

T1 sequence (Q96PF2 whole entry): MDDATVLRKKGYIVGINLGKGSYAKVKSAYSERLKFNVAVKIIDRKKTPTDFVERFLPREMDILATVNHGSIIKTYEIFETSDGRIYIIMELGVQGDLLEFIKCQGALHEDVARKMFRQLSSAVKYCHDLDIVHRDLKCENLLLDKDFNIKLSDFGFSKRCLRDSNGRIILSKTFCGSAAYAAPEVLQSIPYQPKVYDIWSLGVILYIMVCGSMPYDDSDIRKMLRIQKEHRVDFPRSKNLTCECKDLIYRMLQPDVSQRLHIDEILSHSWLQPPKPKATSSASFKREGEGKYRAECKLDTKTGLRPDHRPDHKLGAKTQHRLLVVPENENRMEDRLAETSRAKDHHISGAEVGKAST

A word on the inhibition: it is the drop in the measured response relative to a control, in per cent. High values mean strong suppression, low ones little suppression. Compound `CN(C(=O)CN1CCOCC1)c1ccc2sc3c(-c4cccc5c(=O)cc(N6CC7CCC(C6)O7)oc45)cccc3c2c1` [NU5455] showed an inhibition at 1 µM of 2.8%.
